For data set [1], the system named is HeLa (cervical carcinoma) cell line. Description: Sulforhodamine B growth inhibition assay, HeLa. Type of data set: cell-based, human. The procedure: (§1) J. regia leaf extracts (30 mg/mL) and solvents were studied regarding their inhibitory growth activity of the HeLa (cervical carcinoma) cell line and the non-tumor PLP2 cells (porcine liver primary cells) by using a sulforhodamine B assay. The extracts were diluted to obtain a stock solution of 10 mg/mL, and the concentration of the working solutions ranged from 500 to 7.8 µg/mL, while the concentration of the solvents ranged from 4% to 0.0156%. Ellipticine was used as positive control. The experimental protocol related to the cell cultures was previously described by Barros et al. and Abreu et al..

The subject of data set [2] is non-tumor PLP2 cells (porcine liver primary cells). Briefly: Sulforhodamine B growth inhibition assay, PLP2 (hepatotoxicity). The procedure:
as §1

Experiment in data set [3]: as above
Conditions: pig, PLP2 cells (porcine liver primary cells, non-tumor). The procedure:
as §1

Setting [4] is: solvent without extract, range 4% to 0.0156%, mean ± SD.

Each structure is given as a SMILES string. Values after ≈ are worked out from the molar mass of the structure shown. Values joined by “and” are separate entries in the source; they are usually repeats but may differ in a detail not shown here. Equal entries are not always repeated. Where two headings read alike, the source gives them in different places.

As to `OCC(O)CO` [Glycerol, glycerol], in data set [1] (setting [4]), the “GI50 HeLa, Solvent” value was >4 %, v/v. Moreover, the “GI50 PLP2, Solvent” value in data set [2] (pig) is recorded as >4 %, v/v.
As to `CCCC(O)CO` (stereo not shown) [1,2-pentanediol], the “GI50 HeLa, Solvent” value in data set [1] (setting [4]) was 0.63 ± 0.04a %, v/v. The “GI50 PLP2, Solvent” value in data set [2] (setting [4]) is on record as 0.89 ± 0.04a %, v/v.
Consider `OCCCCCO` [1,5-pentanediol], for which, in data set [1] (setting [4]), the “GI50 HeLa, Solvent” value is 0.49 ± 0.02b %, v/v. For the same compound, the “GI50 PLP2, Solvent” value in data set [2] (pig) is 0.59 ± 0.02b %, v/v.
`OCCO` [1,2-ethanediol]: the “GI50 HeLa, Solvent” value in data set [1] is recorded as >4 %, v/v. In data set [2], the “GI50 PLP2, Solvent” value is given as >4 %, v/v.
As to `O` [Water, water], in data set [1] (setting [4]), the “GI50 HeLa, Solvent” value is listed as >4 %, v/v. Further, the “GI50 PLP2, Solvent” value in data set [2] is >4 %, v/v.
With `CCO` [Ethanol, ethanol], the “GI50 HeLa, Solvent” value in data set [1] (setting [4]) is given as >4 %, v/v. Moreover, the “GI50 PLP2, Solvent” value in data set [2] is >4 %, v/v.
Take `CCCCC(O)CO` (stereo not shown) [1,2-hexanediol]: the “GI50 HeLa, Solvent” value in data set [1] (setting [4]) is 0.36 ± 0.02 %, v/v and 0.36 ± 0.02c %, v/v. The “GI50 PLP2, Solvent” value in data set [2] (setting [4]) was 0.285 ± 0.005 %, v/v and 0.285 ± 0.005c %, v/v.
For orientation: GI50 means the concentration that inhibits growth by half. Read a low GI50 as greater sensitivity of the cells. As for `Cc1c2ccncc2c(C)c2c1[nH]c1ccccc12` [Ellipticine, reference compound], the GI50 in data set [1] (Homo sapiens, HeLa, positive control, mean ± SD) amounted to 1 ± 0.1 µg/mL (≈ 4.06 µM); in data set [3], 2.3 µg/mL (≈ 9.34 µM).
Turning to `CC(O)CCO` (stereo not shown) [1,3-butanediol], the “GI50 HeLa, Solvent” value in data set [1] (setting [4]) was >4 %, v/v. In addition, the “GI50 PLP2, Solvent” value in data set [2] (setting [4]) was >4 %, v/v.
As to `CC(O)CO` (stereo not shown) [1,2-propanediol], the “GI50 HeLa, Solvent” value in data set [1] (setting [4]) was >4 %, v/v. The “GI50 PLP2, Solvent” value in data set [2] (setting [4]) was >4 %, v/v.
In the case of `OCCCO` [1,3-propanediol], the “GI50 HeLa, Solvent” value in data set [1] (setting [4]) is recorded as >4 %, v/v. Moreover, the “GI50 PLP2, Solvent” value in data set [2] (setting [4]) is >4 %, v/v.
